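Where inhibition never reached the appropriate level, the endpoint shown equals the highest concentration tested. Otherwise, values were interpolated linearly from a five-concentration, 48-hour dose response in 96-well plates. Abbreviation: GI50, concentration required for 50% inhibition of growth.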 Activity calls are given as the source filed them. Rule as the data show it: active = GI50 up to about 1.1 µM and inactive = higher.
How the values were obtained:
Test in all cases: inhibition of tumour cell growth, NCI panel, 48 h
A498 = test system: A498
A549 = test system: A549
BT-549 = test system: BT-549
COLO 205 = test system: COLO 205
DLD-1 = test system: DLD-1
EKVX = test system: EKVX
HOP-62 = test system: HOP-62
HOP-92 = test system: HOP-92
K562 = test system: K562
MCF7 = test system: MCF7
NCI-H226 = test system: NCI-H226
NCI-H23 = test system: NCI-H23
NCI-H460 = test system: NCI-H460
RXF 393 = test system: RXF 393
SF-268 = test system: SF-268
SF-295 = test system: SF-295
SF-539 = test system: SF-539
SK-MEL-28 = test system: SK-MEL-28
T47D = test system: T47D
UO-31 = test system: UO-31

SMILES | GI50 (A498) | GI50 (A549) | GI50 (BT-549) | GI50 (COLO 205) | GI50 (DLD-1) | GI50 (EKVX) | GI50 (HOP-62) | GI50 (HOP-92) | GI50 (K562) | GI50 (MCF7) | GI50 (NCI-H226) | GI50 (NCI-H23) | GI50 (NCI-H460) | GI50 (RXF 393) | GI50 (SF-268) | GI50 (SF-295) | GI50 (SF-539) | GI50 (SK-MEL-28) | GI50 (T47D) | GI50 (UO-31)
CN(O)C(=S)c1ccccc1 | 20.2 µM (inactive) | 4.26 µM (inactive) | > 100 µM (inactive) | 0.379 µM (active) | 0.619 µM (active) | 15.5 µM (inactive) | 11.4 µM (inactive) | 5.25 µM (inactive) | 0.347 µM (active) | 1.1 µM (active) | 34.2 µM (inactive) | 1.91 µM (inactive) | 2.9 µM (inactive) | 3.19 µM (inactive) | 6.43 µM (inactive) | 3.48 µM (inactive) | 9.59 µM (inactive) | 3.31 µM (inactive) | 16.4 µM (inactive) | 5.35 µM (inactive)
O=CN/C=C/c1ccccc1 | > 100 µM (inactive) | > 100 µM (inactive) | – | > 63.2 µM (inactive) | > 100 µM (inactive) | > 100 µM (inactive) | > 100 µM (inactive) | > 100 µM (inactive) | > 31.6 µM (inactive) | – | > 100 µM (inactive) | > 100 µM (inactive) | > 100 µM (inactive) | > 100 µM (inactive) | > 100 µM (inactive) | > 100 µM (inactive) | > 100 µM (inactive) | > 100 µM (inactive) | – | > 87.3 µM (inactive)
O=c1nc(-c2ccccc2)c2c3c(cccn13)CCC2 | 92 µM (inactive) | > 100 µM (inactive) | – | – | > 100 µM (inactive) | – | > 100 µM (inactive) | > 100 µM (inactive) | > 100 µM (inactive) | – | 54 µM (inactive) | > 100 µM (inactive) | > 100 µM (inactive) | > 100 µM (inactive) | > 100 µM (inactive) | > 100 µM (inactive) | > 100 µM (inactive) | > 100 µM (inactive) | – | 73.6 µM (inactive)
Cc1cccc(/C=N/N=C(\N)NO)n1 | > 100 µM (inactive) | 13.4 µM (inactive) | – | > 100 µM (inactive) | 18.7 µM (inactive) | 37.3 µM (inactive) | 17.1 µM (inactive) | 26.1 µM (inactive) | 33.5 µM (inactive) | – | – | > 100 µM (inactive) | 26.9 µM (inactive) | > 100 µM (inactive) | 16.1 µM (inactive) | 22.8 µM (inactive) | 26.7 µM (inactive) | > 100 µM (inactive) | – | –
Oc1ncnc2c1nnn2CCCn1nnc2c(O)ncnc21 | > 100 µM (inactive) | > 100 µM (inactive) | – | > 100 µM (inactive) | > 100 µM (inactive) | > 100 µM (inactive) | > 100 µM (inactive) | > 100 µM (inactive) | > 100 µM (inactive) | – | > 100 µM (inactive) | > 100 µM (inactive) | > 100 µM (inactive) | > 100 µM (inactive) | > 100 µM (inactive) | > 100 µM (inactive) | > 100 µM (inactive) | > 100 µM (inactive) | – | > 100 µM (inactive)
CC1=NN(C(=O)c2ccc([N+](=O)[O-])cc2)C(=O)C1/N=N/c1ccccc1C(=O)O (stereo not given) | > 100 µM (inactive) | > 100 µM (inactive) | – | > 100 µM (inactive) | > 100 µM (inactive) | > 100 µM (inactive) | – | 45 µM (inactive) | 71.3 µM (inactive) | – | 32.1 µM (inactive) | > 100 µM (inactive) | > 100 µM (inactive) | > 100 µM (inactive) | > 100 µM (inactive) | > 100 µM (inactive) | > 100 µM (inactive) | > 100 µM (inactive) | – | > 100 µM (inactive)
O=C(O/N=C1/CCC/C1=C\c1ccccc1)c1ccc(Cl)cc1 | > 60.4 µM (inactive) | 64 µM (inactive) | – | > 100 µM (inactive) | 23.9 µM (inactive) | > 67.3 µM (inactive) | > 54.3 µM (inactive) | 64.3 µM (inactive) | > 94.2 µM (inactive) | – | > 95.7 µM (inactive) | 50.8 µM (inactive) | > 31.6 µM (inactive) | 18 µM (inactive) | > 77.4 µM (inactive) | 42 µM (inactive) | 25.2 µM (inactive) | > 100 µM (inactive) | – | 58.9 µM (inactive)
Cc1cc(-c2ccccc2)nc(Nc2cc3ccccc3[nH]2)n1 | > 100 µM (inactive) | > 100 µM (inactive) | – | > 100 µM (inactive) | > 100 µM (inactive) | 89.3 µM (inactive) | > 100 µM (inactive) | 22.2 µM (inactive) | > 100 µM (inactive) | – | > 100 µM (inactive) | > 100 µM (inactive) | > 100 µM (inactive) | – | > 100 µM (inactive) | > 100 µM (inactive) | > 100 µM (inactive) | > 100 µM (inactive) | – | > 100 µM (inactive)
COc1cc(C(C)O)c[n+](Cc2ccccc2)c1 (stereo not given) | > 100 µM (inactive) | > 100 µM (inactive) | – | > 100 µM (inactive) | > 100 µM (inactive) | > 100 µM (inactive) | > 100 µM (inactive) | > 100 µM (inactive) | > 100 µM (inactive) | – | > 100 µM (inactive) | > 100 µM (inactive) | > 100 µM (inactive) | > 100 µM (inactive) | > 100 µM (inactive) | > 100 µM (inactive) | > 100 µM (inactive) | > 100 µM (inactive) | – | > 100 µM (inactive)
O=C(CC1(O)C(=O)Nc2ccccc21)c1ccc(O)cc1 (stereo not given) | > 100 µM (inactive) | > 100 µM (inactive) | – | > 100 µM (inactive) | > 100 µM (inactive) | > 100 µM (inactive) | > 100 µM (inactive) | > 100 µM (inactive) | > 100 µM (inactive) | – | > 100 µM (inactive) | > 100 µM (inactive) | > 100 µM (inactive) | > 100 µM (inactive) | > 100 µM (inactive) | > 100 µM (inactive) | > 100 µM (inactive) | > 100 µM (inactive) | – | > 100 µM (inactive)
O=C(CC(=O)N1N=C(c2ccccc2)C(/N=N/c2ccc(C(=O)O)cc2)C1=O)Nc1ccc(F)cc1 (stereo not given) | 10.6 µM (inactive) | 39.2 µM (inactive) | – | 43.8 µM (inactive) | 20.9 µM (inactive) | 30.1 µM (inactive) | – | 50.8 µM (inactive) | 18.9 µM (inactive) | – | 6.15 µM (inactive) | 23.4 µM (inactive) | 28.7 µM (inactive) | 4.01 µM (inactive) | 15.9 µM (inactive) | 36.9 µM (inactive) | 13.4 µM (inactive) | 38.3 µM (inactive) | – | 29.6 µM (inactive)
O=C1c2ccccc2C(=O)c2c1ccc1c3ccccc3n(-c3ccccc3)c21 | 46 µM (inactive) | 27.7 µM (inactive) | 25.7 µM (inactive) | 16.9 µM (inactive) | 17.1 µM (inactive) | 41.3 µM (inactive) | 49.5 µM (inactive) | 4.84 µM (inactive) | 6.61 µM (inactive) | 16 µM (inactive) | 26.1 µM (inactive) | 15.4 µM (inactive) | 27.2 µM (inactive) | 14.1 µM (inactive) | 23 µM (inactive) | 18.2 µM (inactive) | 19.1 µM (inactive) | 17.9 µM (inactive) | 14.6 µM (inactive) | 21.3 µM (inactive)
O=[N+]([O-])c1nccn1COCCO | > 100 µM (inactive) | > 100 µM (inactive) | – | > 100 µM (inactive) | > 100 µM (inactive) | – | > 100 µM (inactive) | > 100 µM (inactive) | – | – | > 100 µM (inactive) | > 100 µM (inactive) | > 100 µM (inactive) | > 100 µM (inactive) | > 100 µM (inactive) | > 100 µM (inactive) | – | > 100 µM (inactive) | – | –
COc1ccc(Cc2cc3c(cc2OCC(=O)O)OCO3)cc1 | > 100 µM (inactive) | > 100 µM (inactive) | – | > 100 µM (inactive) | > 100 µM (inactive) | > 100 µM (inactive) | > 100 µM (inactive) | > 100 µM (inactive) | > 100 µM (inactive) | – | – | > 100 µM (inactive) | > 100 µM (inactive) | > 100 µM (inactive) | > 100 µM (inactive) | > 100 µM (inactive) | > 100 µM (inactive) | > 100 µM (inactive) | – | > 100 µM (inactive)
CCCCSC(=CC(=O)c1cccc(C(=O)C=C(SCCCC)SCCCC)n1)SCCCC | > 100 µM (inactive) | > 100 µM (inactive) | – | > 100 µM (inactive) | > 100 µM (inactive) | > 100 µM (inactive) | > 100 µM (inactive) | > 100 µM (inactive) | > 100 µM (inactive) | – | > 100 µM (inactive) | > 100 µM (inactive) | > 100 µM (inactive) | > 100 µM (inactive) | > 100 µM (inactive) | > 100 µM (inactive) | > 100 µM (inactive) | > 100 µM (inactive) | – | > 100 µM (inactive)
COC(=O)c1c(C(=O)OC)c(-c2ccccc2)n(-c2ccccc2)c(=O)c1-c1ccccc1 | > 100 µM (inactive) | 80.4 µM (inactive) | – | > 100 µM (inactive) | 66.5 µM (inactive) | > 100 µM (inactive) | 27.6 µM (inactive) | 24.3 µM (inactive) | > 100 µM (inactive) | – | > 100 µM (inactive) | 72.8 µM (inactive) | 98.6 µM (inactive) | 20.9 µM (inactive) | 55.7 µM (inactive) | 36.9 µM (inactive) | 17.7 µM (inactive) | – | – | 59.7 µM (inactive)

Reference: ChEMBL document CHEMBL1201862, “PubChem BioAssay data set” (2004)
